Laboratory results as given in US8575357B2, “Substituted (thiazolyl-carbonyl)imidazolidinones and use thereof” (AiCuris GmbH & Co. KG, priority 2009, dated 2013).

Experiments:
reverse transcriptase = target: T1, reverse transcriptase (Human immunodeficiency virus type 1 group M subtype B, UniProt P04585); experiment: Biochemical reverse transcriptase assay (Reverse Transcriptase Assay, colorimetric, Roche); settings: colorimetric RT assay, final DMSO 1%; read-out: IC50 (nM) RT assay
T1 construct: negative control (mixture without reverse transcriptase); purchased Roche Diagnostics GmbH, Mannheim, Germany
Protocol: The “Reverse Transcriptase Assay, colorimetric” (Roche Diagnostics GmbH, Mannheim, Germany) is used in accordance with the manufacturer's information. The test substances are dissolved in DMSO and are used in the test diluted in 5-fold steps (final DMSO concentration 1%). The resulting values of the photometric evaluation (405/492 nm) are less than 0.1 for the negative control (mixture without reverse transcriptase) and are in the region of 1.5 for the positive control (mixture without test substance). The IC50 values of the test substances are determined as the concentration of the test substance dilution at which the measured optical density is 50% of the positive control.

HIV-1LAI = experiment: H9 assay with wild-type HIV-1 (HIV-1LAI supernatant infection, AlamarBlue); assay type: cell-based; settings: Human immunodeficiency virus 1, 120 h, H9 cells, 10% FCS, 5 days
Protocol: For the mixture for a 96-well MTP, 3 million PBLs are pelleted, suspended in 1 ml of RPMI 1640 medium/10% FCS and incubated together with a suitable amount of HIV-1LAI (NIH AIDS Research & Reference Reagent Program, Germantown, USA) at 37° C. for 2 hours (pellet infection). Unadsorbed viruses are subsequently washed out with PBS, and the infected cells are pelleted again and suspended in 18 ml of RPMI 1640 medium/10% FCS/interleukin-2 (40 U/ml). 180 μl thereof are pipetted into each well of a white 96-well MTP with 20 μl of test substance in suitable dilution. Alternatively, after preparation of the substance dilutions in the MTP, the HIV is pipetted in together with the cells and is not washed out again (supernatant infection). In order to avoid edge effects, the wells at the edge of the MTP are not used for substance dilutions. The second vertical row of the MTP contains only infected cells (virus control) and the eleventh vertical row only uninfected cells (cell control), in each case in RPMI 1640 medium/10% FCS/interleukin-2 (40 U/ml). The other wells of the MTP contain the compounds of the invention in various concentrations starting from the third vertical row, from which the test substances are diluted in 3-fold steps up to the tenth vertical row 3^7-fold. The test substances are dissolved in DMSO, whereby the final DMSO concentration in the test mixture is 1%. The test mixtures are incubated at 37° C./5% CO2. After 5 and 7 days, 50 μl of cell-free supernatant are removed from each well to determine the amount of p24 present by means of a p24 ELISA (HIV-1 p24^CA Antigen Capture Assay Kit, NCI-Frederick Cancer Research and Development Center, Frederick, USA). From the resulting values of the photometric evaluation (450/620 nm) the EC50 values of the test substances are determined as the concentration at which the amount of p24 is 50% of the untreated infected cells.
Alternatively, H9 cells (ATCC, Wesel, Germany) are employed instead of PBLs for testing the test substances. H9 cells are incubated in RPMI 1640 medium with 2% or 10% FCS as a HIV-1LAI supernatant infection at 37° C./5% CO2, (20 μl of substance dilution and 80 μl of cells/virus per well) in accordance with the pattern described above for 5 days. Subsequently, 10 μl of AlamarBlue (Invitrogen, Karlsruhe, Germany) are added to each well, and the MTPs are incubated at 37° C. for 3 hours before the fluorimetric evaluation takes place (544/590 nm). The resulting values are about 40 000 for the untreated uninfected cells and about 7000 for the untreated infected cells. In the low concentration range, the EC50 values of the test substances are determined as the concentration at which the fluorescence is 50% of the untreated uninfected cells (in each case subtracting the values of the untreated infected cells). In addition, in the high concentration range, the CC50 values of the test substances are determined as the concentration at which the fluorescence is 50% of the untreated uninfected cells (in each case subtracting the values of the untreated infected cells).

[1] = tested on: HIV-1NL4-3 reporter virus, reverse transcriptase mutations K103N-Y181C; experiment: Light assay with inhibitor-resistant HI reporter virus in MT4 7F2 cells; assay type: cell-based; settings: Human immunodeficiency virus 1, 120 h, read-out: EC50 (nM) MT4 7F2 cells HIV-1NL4-M3 K103N-Y181C 2% FCS
Protocol: (§1) For the mixture for a 96-well MTP, 3 million MT4 7F2 cells are pelleted, suspended in 1 ml of RPMI 1640 medium without phenol red (Invitrogen, Karlsruhe, Germany)/10% FCS/10% AIM-V (Invitrogen, Karlsruhe, Germany) and incubated together with a suitable amount of the corresponding HIV-1NL4-3 reporter virus at 37° C. for 2 hours (pellet infection). Unadsorbed viruses are subsequently washed out with PBS, and the infected cells are pelleted again and suspended in 8 ml of RPMI 1640 medium without phenol red/2% or 10% FCS/10% AIM-V. 80 μl thereof are pipetted into each well of a white 96-well MTP with 20 μl of test substance in suitable dilution. To avoid edge effects, the wells on the edge of the MTP are not used for substance dilutions. The second vertical row of the MTP contains only infected cells (virus control) and the eleventh vertical row only uninfected cells (cell control), in each case in RPMI 1640 medium without phenol red/2% or 10% FCS/10% AIM-V. The other wells of the MTP contain the compounds of the invention in various concentrations starting from the third vertical row, from which the test substances are diluted in 3-fold steps up to the tenth vertical row 3^7-fold. The test substances are dissolved in DMSO, whereby the final DMSO concentration in the test mixture is 1%. The test mixtures are incubated at 37° C./5% CO2 for five days and, after the addition of 15 μl of Lu164 substrate (5 mg/ml coelenterazine dissolved in 30 μM glutathione/DMSO, 100 mM NaCl, 1M MES, 100 mM glutathione), evaluated by luminometry. The resulting values are in the region of 1 000 000 RLUs (relative light units) for the virus control and 300 to 400 RLUs for the cell control. The EC50 values of the test substances are determined as the concentration at which the virus replication measured in RLUs is 50% of the untreated infected cells.

[2] = tested on: HIV-1NL4-3 reporter virus, wild-type; experiment: Light assay with wild-type HI reporter virus in MT4 7F2 cells; assay type: cell-based; settings: Human immunodeficiency virus 1, 120 h, read-out: EC50 (nM) MT4 7F2 cells HIV-1NL4-M3 wt 2% FCS
Protocol: as §1

Compound `O=C1CN(C(=O)c2nc(-c3ccc(F)c(Cl)c3)c(-c3cc(F)cc(Cl)c3)s2)CN1` [Example 1, 1-{[4-(3-Chloro-4-fluorophenyl)-5-(3-chloro-5-fluorophenyl)-1,3-thiazole-2-yl]carbonyl}imidazolidin-4-one] has an IC50 (reverse transcriptase) of 61 nM, an EC50 (HIV-1LAI) of 14 nM and an EC50 [1] of 55 nM. The EC50 [2] was 2 nM.
`O=C1CN(C(=O)c2nc(-c3ccc(F)c(Cl)c3)c(-c3cccc(Cl)c3)s2)CN1` [Example 2, 1-{[4-(3-Chloro-4-fluorophenyl)-5-(3-chlorophenyl)-1,3-thiazole-2-yl]carbonyl}imidazolidin-4-one] was tested, and the IC50 (reverse transcriptase) was 17 nM, the EC50 (HIV-1LAI) was 30 nM and the EC50 [1] was 91 nM. For the same compound, the EC50 [2] was 4 nM.
In the case of `O=C1CN(C(=O)c2nc(-c3cccc(Cl)c3)c(-c3ccc(F)c(Cl)c3)s2)CN1` [Example 4, 1-{[5-(3-Chloro-4-fluorophenyl)-4-(3-chlorophenyl)-1,3-thiazole-2-yl]carbonyl}imidazolidin-4-one], the EC50 (HIV-1LAI) is reported as 80 nM, the EC50 [1] is reported as 143 nM and the EC50 [2] is reported as 10 nM.
Compound `N#Cc1cc(-c2sc(C(=O)N3CNC(=O)C3)nc2-c2cccc(Cl)c2)ccc1F` [Example 5, 5-{4-(3-Chlorophenyl)-2-[(4-oxoimidazolidin-1-yl)carbonyl]-1,3-thiazole-5-yl}-2-fluorobenzenecarbonitrile] has an EC50 (HIV-1LAI) of 80 nM, an EC50 [1] of 228 nM and an EC50 [2] of 38 nM.
With `O=C1CN(C(=O)c2nc(-c3cc(F)cc(Cl)c3)c(-c3cccc(Cl)c3)s2)CN1` [Example 6, 1-{[4-(3-Chloro-5-fluorophenyl)-5-(3-chlorophenyl)-1,3-thiazole-2-yl]carbonyl}imidazolidin-4-one] the EC50 (HIV-1LAI) was 95 nM, the EC50 [1] was 282 nM and the EC50 [2] was 58 nM.
`N#Cc1cccc(-c2sc(C(=O)N3CNC(=O)C3)nc2-c2cccc(Cl)c2)c1` [Example 7, 3-{4-(3-Chlorophenyl)-2-[(4-oxoimidazolidin-1-yl)carbonyl]-1,3-thiazole-5-yl}benzenecarbonitrile] was tested, and the EC50 (HIV-1LAI) was 20 nM, the EC50 [1] was 303 nM and the EC50 [2] was 36 nM.
In the case of `O=C1CN(C(=O)c2nc(-c3cccc(Cl)c3)c(-c3cccc(C(F)(F)F)c3)s2)CN1` [Example 8, 1-({4-(3-Chlorophenyl)-5-[3-(trifluoromethyl)phenyl]-1,3-thiazole-2-yl}carbonyl)imidazolidin-4-one], the EC50 [1] is reported as 142 nM and the EC50 [2] is reported as 46 nM.
With `N#Cc1cc(-c2sc(C(=O)N3CNC(=O)C3)nc2-c2ccc(F)c(Cl)c2)ccc1F` [Example 9, 5-{4-(3-Chloro-4-fluorophenyl)-2-[(4-oxoimidazolidin-1-yl)carbonyl]-1,3-thiazole-5-yl}-2-fluorobenzenecarbonitrile] the EC50 (HIV-1LAI) was 40 nM, the EC50 [1] was 118 nM and the EC50 [2] was 35 nM.
In the case of `N#Cc1cccc(-c2sc(C(=O)N3CNC(=O)C3)nc2-c2ccc(F)c(Cl)c2)c1` [Example 10], the EC50 (HIV-1LAI) is reported as 5 nM, the EC50 [1] is reported as 70 nM and the EC50 [2] is reported as 4 nM.
Compound `N#Cc1cc(F)cc(-c2nc(C(=O)N3CNC(=O)C3)sc2-c2cc(F)cc(Cl)c2)c1` [Example 12, 3-{5-(3-Chloro-5-fluorophenyl)-2-[(4-oxoimidazolidin-1-yl)carbonyl]-1,3-thiazole-4-yl}fluorobenzenecarbonitrile] has an EC50 (HIV-1LAI) of 80 nM, an EC50 [1] of 119 nM and an EC50 [2] of 29 nM.
With `N#Cc1cc(-c2nc(C(=O)N3CNC(=O)C3)sc2-c2cc(F)cc(Cl)c2)ccc1F` [Example 13, 5-{5-(3-Chloro-5-fluorophenyl)-2-[(4-oxoimidazolidin-1-yl)carbonyl]-1,3-thiazole-4-yl}-2-fluorobenzenecarbonitrile] the EC50 (HIV-1LAI) was 2 nM, the EC50 [1] was 43 nM and the EC50 [2] was 0.6 nM.
For `N#Cc1cc(-c2nc(C(=O)N3CNC(=O)C3)sc2-c2cccc(Cl)c2)ccc1F` [Example 14, 5-{5-(3-Chlorophenyl)-2-[(4-oxoimidazolidin-1-yl)carbonyl]-1,3-thiazole-4-yl}-2-fluorobenzenecarbonitrile], the EC50 (HIV-1LAI) was 4 nM, the EC50 [1] was 49 nM and the EC50 [2] was 1 nM.
`N#Cc1cc(F)cc(-c2sc(C(=O)N3CNC(=O)C3)nc2-c2ccc(F)c(C#N)c2)c1` [Example 15, 5-{5-(3-Cyano-5-fluorophenyl)-2-[(4-oxoimidazolidin-1-yl)carbonyl]-1,3-thiazole-4-yl}-2-fluorobenzenecarbonitrile] was tested, and the EC50 (HIV-1LAI) was 2 nM, the EC50 [1] was 87 nM and the EC50 [2] was 9 nM.
Compound `N#Cc1cccc(-c2sc(C(=O)N3CNC(=O)C3)nc2-c2ccc(F)c(C#N)c2)c1` [Example 16, 5-{5-(3-Cyanophenyl)-2-[(4-oxoimidazolidin-1-yl)carbonyl]-1,3-thiazole-4-yl}-2-fluorobenzenecarbonitrile] has an EC50 (HIV-1LAI) of 2 nM, an EC50 [1] of 123 nM and an EC50 [2] of 15 nM.
In the case of `N#Cc1cccc(-c2nc(C(=O)N3CNC(=O)C3)sc2-c2cccc(Cl)c2)c1` [Example 17], the EC50 (HIV-1LAI) is reported as 2 nM, the EC50 [1] is reported as 64 nM and the EC50 [2] is reported as 0.5 nM.
`N#Cc1cccc(-c2nc(C(=O)N3CNC(=O)C3)sc2-c2cc(F)cc(Cl)c2)c1` [Example 18, 3-{5-(3-Chloro-5-fluorophenyl)-2-[(4-oxoimidazolidin-1-yl)carbonyl]-1,3-thiazole-4-yl}benzenecarbonitrile] showed an EC50 (HIV-1LAI) of 1 nM, an EC50 [1] of 38 nM and an EC50 [2] of 0.4 nM.
`N#Cc1cccc(-c2nc(C(=O)N3CNC(=O)C3)sc2-c2cccc(C#N)c2)c1` [Example 19, 3,3′-{2-[(4-Oxoimidazolidin-1-yl)carbonyl]-1,3-thiazole-4,5-diyl}benzenecarbonitrile] was tested, and the EC50 (HIV-1LAI) was 1 nM, the EC50 [1] was 94 nM and the EC50 [2] was 2 nM.
`N#Cc1cc(F)cc(-c2sc(C(=O)N3CNC(=O)C3)nc2-c2cccc(Cl)c2)c1` [Example 21, 3-{4-(3-Chlorophenyl)-2-[(4-oxoimidazolidin-1-yl)carbonyl]-1,3-thiazole-5-yl}-5-fluorobenzenecarbonitrile] gave an EC50 (HIV-1LAI) of 2 nM, an EC50 [1] of 79 nM and an EC50 [2] of 2 nM.
